Laboratory results reported in US8178506B2, “Oligomeric compounds and compositions for use in modulation of small non-coding RNAs” (Regulus Therapeutics Inc., priority 2003, dated 2012).
In the oligonucleotide strings, read from the 5' end, every base follows the letter of its sugar. An asterisk marks phosphorothioate; unmarked linkages are phosphodiester. Other units and linkages are bracketed, terminal groups are in braces. A string of capitals states the bases alone. e = 2'-O-(2-methoxyethyl) (MOE); [5mC] = 5-methylcytosine; d = 2'-deoxy (DNA)

Columns and labels:
T47D cells = test: Caspase-3 activity assay (apoptosis) in T47D cells; conditions: T47D cells, 48 hours; for Fold Increase over UTC (caspase activity): 200 nM, relative to untreated control; for Fold Increase over UTC (caspase-3 activity, apoptosis): 200 nM oligomeric compound
IL-12 mRNA = IL-12 mRNA in LPS-activated primary murine macrophages; assay type: cell-based, mouse; conditions: normalized to LPS-treated cells without oligomeric compound; for IL-12 mRNA expression, −IFN % UTC: 300 nM oligomeric compound and LPS, no IFN-gamma pretreatment, single experiment; for IL-12 mRNA expression, +IFN % UTC: 300 nM oligomeric compound, stimulation with IFN-gamma and LPS, average of 2 experiments
Procedure: To investigate the role of miRNAs in the immune response, oligomeric compounds of the present invention targeting miRNAs were tested for their effects upon lipopolysaccharide (LPS)-activated primary murine macrophages. Macrophages participate in the immune response, for example, in the recognition and phagocytosis of microorganisms, including bacteria. Interferon-gamma (IFN-gamma) released by helper T cells is one type of signal required for macrophage activation, and LPS can serve as an additional stimulus. LPS is a component of the gram-negative bacterial cell wall and acts as an agonist for toll-like receptor 4 (TLR4), the primary LPS receptor expressed by macrophages. The proinflammatory cytokines interleukin-12 (IL-12) and interleukin-6 (IL-6) are induced by LPS treatment of macrophages, thus the expression of the mRNAs encoding these cytokines was used to evaluate the response of macrophages to LPS following treatment with oligomeric compounds targeting miRNAs.
Macrophages were isolated as follows. Female C57B1/6 mice (Charles River Laboratories, Wilmington, Mass.) were injected intraperitoneally with 1 ml 3% thioglycollate broth (Sigma-Aldrich, St. Louis, Mo.), and peritoneal macrophage cells were isolated by peritoneal lavage 4 days later. The cells were plated in 96-well plates at 40,000 cells/well for one hour in serum-free RPMI adjusted to contain 10 mM HEPES (Invitrogen Life Technologies, Carlsbad, Calif.), allowed to adhere, then non-adherent cells were washed away and the media was replaced with RPMI containing 10 mM HEPES, 10% FBS and penicillin/streptomycin (“complete” RPMI; Invitrogen Life Technologies, Carlsbad, Calif.).
Oligomeric compounds were introduced into the cells using the non-liposomal transfection reagent FuGENE 6 Transfection Reagent (Roche Diagnostics Corp., Indianapolis, Ind.). Oligomeric compound was mixed with FuGENE 6 in 1 mL of serum-free RPMI to achieve a concentration of 10 μL FuGENE per 1000 nM oligomeric compound. The oligomeric compound/FuGENE complex was allowed to form at room temperature for 20 minutes. This mixture was diluted to the desired concentration of oligomeric compound by the addition of the appropriate volume of complete RPMI. The final ratio of FuGENE 6 to oligomeric compound was 1 μL of FuGENE 6 per 100 nM oligomeric compound. A volume of 100 μL of oligomeric compound/FuGENE/RPMI was added to each well of the 96-well plate in which the macrophages were cultured. Each oligomeric compound treatment was repeated in triplicate.
Following oligomeric compound treatment, cells were stimultated with LPS. Cells were cultured in the presence of the transfection complex for approximately 24 to 28 hours at 37° C. and 5% CO2, after which the medium containing the transfection complex was removed from the cells, and complete RPMI containing 100 ng/mL LPS (Sigma-Aldrich Corp., St. Louis, Mo.) was added to the cells for a period of approximately 24 hours. Control samples included (1) cells receiving no oligomeric compound, stimulated with LPS and (2) cells receiving neither oligomeric compound nor LPS treatment.
In another embodiment, following oligomeric compound treatment, cells were first activated by IFN-gamma, to amplify the response to LPS. Cells were cultured in the presence of the transfection complex for approximately 24 hours at 37° C. and 5% CO2, at which point the medium containing the transfection complex was removed from the cells, and complete RPMI containing 100 ng/mL recombinant mouse IFN-gamma (R&D Systems, Minneapolis, Minn.) was added to the cells. After the 4 hour treatment with INF-gamma, cells were treated with 100 ng/mL LPS for approximately 24 hours. Control samples included (1) cells receiving no oligomeric compound, stimulated with LPS and (2) cells receiving neither oligomeric compound nor LPS treatment. […]

## 328371 (eT*e[5mC]*e[5mC]*eA*eT*dA*dG*d[5mC]*dT*dT*dA*dG*d[5mC]*dA*dG*eG*eT*e[5mC]*e[5mC]*eA; antisense) [compound 328371]
T47D cells
  Fold Increase over UTC (caspase activity): 1.2

## 328372 (eT*eT*eT*eG*eA*dT*dA*dG*dT*dT*dT*dA*dG*dA*d[5mC]*eA*e[5mC]*eA*eA*eA; antisense) [compound 328372]
T47D cells
  Fold Increase over UTC (caspase activity): 1.0

## 328373 (eG*eG*eG*eA*eA*dG*dG*dA*dT*dT*dG*d[5mC]*d[5mC]*dT*dA*eG*e[5mC]*eA*eG*eT; antisense) [compound 328373]
T47D cells; experiment of Table 12
  Fold Increase over UTC (caspase-3 activity, apoptosis): 0.9 fold

## 328375 (eT*eA*e[5mC]*e[5mC]*eA*dT*dA*d[5mC]*dA*dG*dA*dA*dA*d[5mC]*dA*e[5mC]*eA*eG*e[5mC]*eA; antisense) [compound 328375]
T47D cells; experiment of Table 10
  Fold Increase over UTC (caspase-3 activity, apoptosis): 0.9 fold

## 328376 (eT*e[5mC]*eA*e[5mC]*eA*dA*dT*d[5mC]*d[5mC]*d[5mC]*d[5mC]*dA*d[5mC]*d[5mC]*dA*eA*eA*e[5mC]*eT*e[5mC]; antisense) [compound 328376]
T47D cells; experiment of Table 11
  Fold Increase over UTC (caspase-3 activity, apoptosis): 0.7 fold

## 328378 (e[5mC]*eA*e[5mC]*e[5mC]*e[5mC]*dT*d[5mC]*d[5mC]*dA*dG*dT*dG*d[5mC]*dT*dG*eT*eT*eA*eG*eT; antisense) [compound 328378]
T47D cells
  Fold Increase over UTC (caspase activity): 1.0

## 328379 (e[5mC]*eT*eG*eA*e[5mC]*dT*dG*dA*dG*dA*d[5mC]*dT*dG*dT*dT*e[5mC]*eA*e[5mC]*eA*eG; antisense) [compound 328379]
T47D cells; experiment of Table 12
  Fold Increase over UTC (caspase-3 activity, apoptosis): 1.1 fold

## 328381 (eA*e[5mC]*eA*eG*eG*dT*dG*dA*dG*d[5mC]*dG*dG*dA*dT*dG*eT*eT*e[5mC]*eT*eG; antisense) [compound 328381]
T47D cells
  Fold Increase over UTC (caspase activity): 1.1

## 328385 (eA*eG*eT*eG*e[5mC]*dT*dA*dA*dT*dA*d[5mC]*dT*dT*d[5mC]*dT*eT*eT*e[5mC]*eA*eT; antisense) [compound 328385]
T47D cells; experiment of Table 10
  Fold Increase over UTC (caspase-3 activity, apoptosis): 0.9 fold

## 328386 (eA*e[5mC]*e[5mC]*eT*eG*dT*dG*dT*dA*dA*d[5mC]*dA*dG*d[5mC]*d[5mC]*eG*eT*eG*eT*eA; antisense) [compound 328386]
T47D cells; experiment of Table 11
  Fold Increase over UTC (caspase-3 activity, apoptosis): 0.7 fold

## 328387 (eT*eT*eA*eT*e[5mC]*dG*dG*dA*dA*d[5mC]*dT*dT*d[5mC]*dA*d[5mC]*eA*eG*eA*eG*eA; antisense) [compound 328387]
T47D cells; experiment of Table 12
  Fold Increase over UTC (caspase-3 activity, apoptosis): 1.4 fold

## 328389 (eG*eG*e[5mC]*eA*e[5mC]*dT*dT*d[5mC]*dA*dT*dT*dG*d[5mC]*dT*dG*e[5mC]*eT*eG*e[5mC]*e[5mC]; antisense) [compound 328389]
T47D cells; experiment of Table 12
  Fold Increase over UTC (caspase-3 activity, apoptosis): 1.1 fold

## 328390 (eG*eG*eA*eG*e[5mC]*d[5mC]*dT*dT*dG*d[5mC]*dG*d[5mC]*dT*d[5mC]*dA*eG*e[5mC]*eA*eT*eT; antisense) [compound 328390]
T47D cells; experiment of Table 11
  Fold Increase over UTC (caspase-3 activity, apoptosis): 0.9 fold

## 328391 (eA*eT*eG*eG*eT*dA*dA*dT*dT*dT*d[5mC]*dA*dT*dT*dT*e[5mC]*eA*eG*eG*e[5mC]; antisense) [compound 328391]
T47D cells
  Fold Increase over UTC (caspase activity): 0.8

## 328392 (eG*eA*eT*eT*eG*d[5mC]*dA*d[5mC]*dA*dT*d[5mC]*d[5mC]*dA*d[5mC]*dA*e[5mC]*eT*eG*eT*e[5mC]; antisense) [compound 328392]
T47D cells
  Fold Increase over UTC (caspase activity): 1.0

## 328393 (eG*e[5mC]*eT*eG*eG*d[5mC]*d[5mC]*dT*dG*dA*dT*dA*dG*d[5mC]*d[5mC]*e[5mC]*eT*eT*e[5mC]*eT; antisense) [compound 328393]
T47D cells; experiment of Table 11
  Fold Increase over UTC (caspase-3 activity, apoptosis): 1.5 fold

## 328395 (antisense e[5mC]*e[5mC]*e[5mC]*eA*eG*dT*dG*dG*dT*dG*dG*dG*dT*dG*dT*eG*eA*e[5mC]*e[5mC]*e[5mC]) [compound 328395]
T47D cells; experiment of Table 10
  Fold Increase over UTC (caspase-3 activity, apoptosis): 1.0 fold

## 328398 (antisense eG*e[5mC]*e[5mC]*eA*eT*dT*dG*dG*dG*dA*d[5mC]*d[5mC]*dT*dG*d[5mC]*eA*e[5mC]*eA*eG*e[5mC]) [compound 328398]
T47D cells; experiment of Table 10
  Fold Increase over UTC (caspase-3 activity, apoptosis): 0.9 fold

## 328399 (antisense eA*eT*eG*eG*eG*dT*dA*d[5mC]*d[5mC]*dA*d[5mC]*d[5mC]*dA*dG*dA*eA*e[5mC]*eA*eT*eG) [compound 328399]
T47D cells; experiment of Table 10
  Fold Increase over UTC (caspase-3 activity, apoptosis): 1.0 fold

## 328401 (antisense eG*e[5mC]*e[5mC]*e[5mC]*eT*d[5mC]*dG*dA*d[5mC]*dG*dA*dA*dA*dA*d[5mC]*e[5mC]*eG*eA*e[5mC]*eT) [compound 328401]
T47D cells; experiment of Table 12
  Fold Increase over UTC (caspase-3 activity, apoptosis): 0.8 fold

## 328402 (antisense eT*eT*eG*eA*eA*d[5mC]*dT*d[5mC]*d[5mC]*dA*dT*dG*d[5mC]*d[5mC]*dA*e[5mC]*eA*eA*eG*eG) [compound 328402]
T47D cells; experiment of Table 10
  Fold Increase over UTC (caspase-3 activity, apoptosis): 1.2 fold

## 328404 (antisense eG*eT*eA*eG*eA*dT*d[5mC]*dT*d[5mC]*dA*dA*dA*dA*dA*dG*e[5mC]*eT*eA*e[5mC]*e[5mC]) [compound 328404]
T47D cells; experiment of Table 11
  Fold Increase over UTC (caspase-3 activity, apoptosis): 0.9 fold

## 328405 (antisense e[5mC]*eT*eG*eA*eA*d[5mC]*dA*dG*dG*dG*dT*dA*dA*dA*dA*eT*e[5mC]*eA*e[5mC]*eT) [compound 328405]
T47D cells
  Fold Increase over UTC (caspase activity): 1.0

## 328406 (antisense eA*eG*e[5mC]*eA*eA*dG*dT*d[5mC]*dT*dA*d[5mC]*dT*d[5mC]*d[5mC]*dT*e[5mC]*eA*eG*eG*eG) [compound 328406]
T47D cells; experiment of Table 11
  Fold Increase over UTC (caspase-3 activity, apoptosis): 1.0 fold

## 328407 (antisense eA*eA*eT*eG*eG*dA*dG*d[5mC]*d[5mC]*dA*dA*dG*dG*dT*dG*e[5mC]*eT*eG*e[5mC]*e[5mC]) [compound 328407]
T47D cells; experiment of Table 11
  Fold Increase over UTC (caspase-3 activity, apoptosis): 1.2 fold

## 340345 (antisense GGAACUUAGCCACUGUGAA; all 2'-MOE, all phosphorothioate, methylation of C and T or U not given here) [compound 340345]
IL-12 mRNA
  IL-12 mRNA expression, −IFN % UTC: 104 % UTC
  IL-12 mRNA expression, +IFN % UTC: 78 % UTC

## 341786 (antisense CGCAAGGUCGGUUCUACGGGUG; all 2'-MOE, all phosphorothioate, methylation of C and T or U not given here) [compound 341786]
IL-12 mRNA
  IL-12 mRNA expression, −IFN % UTC: 266 % UTC
  IL-12 mRNA expression, +IFN % UTC: 99 % UTC

## 341790 (antisense CGAAGGCAACACGGAUAACCUA; all 2'-MOE, all phosphorothioate, methylation of C and T or U not given here) [compound 341790]
IL-12 mRNA
  IL-12 mRNA expression, −IFN % UTC: 318 % UTC
  IL-12 mRNA expression, +IFN % UTC: 84 % UTC

## 341793 (antisense CCAUAAAGUAGGAAACACUACA; all 2'-MOE, all phosphorothioate, methylation of C and T or U not given here) [compound 341793]
IL-12 mRNA
  IL-12 mRNA expression, −IFN % UTC: 202 % UTC
  IL-12 mRNA expression, +IFN % UTC: 147 % UTC

## 341811 (antisense UCCACAUGGAGUUGCUGUUACA; all 2'-MOE, all phosphorothioate, methylation of C and T or U not given here) [compound 341811]
IL-12 mRNA
  IL-12 mRNA expression, −IFN % UTC: 154 % UTC
  IL-12 mRNA expression, +IFN % UTC: 88 % UTC

## 341815 (antisense CAUCGUUACCAGACAGUGUUA; all 2'-MOE, all phosphorothioate, methylation of C and T or U not given here) [compound 341815]
IL-12 mRNA
  IL-12 mRNA expression, −IFN % UTC: 190 % UTC
  IL-12 mRNA expression, +IFN % UTC: 157 % UTC
